Here are results for 1 molecule from publication PMC7515950, “Physiologically based pharmacokinetic modeling to assess metabolic drug–drug interaction risks and inform the drug label for fedratinib” (Cancer Chemotherapy and Pharmacology, 2020).

Read-outs that look alike come from different tables or passages of the source.

In data set [1] the target is T1, OATP1B1 (Homo sapiens, UniProt Q9Y6L6).
T1 sequence (Q9Y6L6 1-691): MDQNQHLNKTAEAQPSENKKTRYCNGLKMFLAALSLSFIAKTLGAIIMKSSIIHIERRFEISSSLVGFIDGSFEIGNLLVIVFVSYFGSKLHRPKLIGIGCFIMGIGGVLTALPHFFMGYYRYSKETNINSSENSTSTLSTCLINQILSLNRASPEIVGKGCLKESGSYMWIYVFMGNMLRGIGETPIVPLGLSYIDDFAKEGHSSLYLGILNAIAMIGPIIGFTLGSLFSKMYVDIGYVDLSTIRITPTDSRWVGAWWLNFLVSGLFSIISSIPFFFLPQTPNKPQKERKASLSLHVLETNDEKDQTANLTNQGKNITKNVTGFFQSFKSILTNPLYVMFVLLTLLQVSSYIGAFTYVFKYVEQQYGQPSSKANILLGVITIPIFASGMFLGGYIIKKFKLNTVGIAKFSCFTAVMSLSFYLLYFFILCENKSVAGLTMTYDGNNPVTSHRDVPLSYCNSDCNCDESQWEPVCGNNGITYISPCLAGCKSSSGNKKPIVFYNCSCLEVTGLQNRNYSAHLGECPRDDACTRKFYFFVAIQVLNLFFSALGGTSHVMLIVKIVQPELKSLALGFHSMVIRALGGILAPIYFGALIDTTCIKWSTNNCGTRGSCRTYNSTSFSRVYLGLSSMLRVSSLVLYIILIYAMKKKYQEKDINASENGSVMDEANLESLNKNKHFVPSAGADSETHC
As to the kind of experiment: OATP1B1 inhibition, HEK-hOATP1B1 cells (TRE0075). Further details: expressed in transfected cells; host or cells: HEK^TR-hOATP1B1. The class given is in vitro ADME. The source says:
(§1) The reported IC50 values were converted to Ki values using the Cheng-Prusoff equation [10]:
(§2) The transporter inhibition parameters (Ki) for fedratinib were derived from the experimentally determined IC50 values using the Cheng-Prusoff equation, i.e., Ki = IC50/(1+[S]/Km) with the substrate concentrations ([S]) reported in the experimental studies and the substrate Km values collected from literature, as summarized in Table 13.

Data set [2] is described as follows: In vitro binding to human plasma proteins (Study LPR1082). In kind it is in vitro ADME. As to conditions: mainly bound to α1-acid glycoprotein, read-out: fu (unbound fraction in plasma). The source says: The physicochemical properties and blood binding parameters of fedratinib including molecular weight, logP, pKa, fu, and B/P were experimentally measured and listed in Table 1.

The nature of data set [3]: Clinical single-dose PK of fedratinib in healthy subjects. The class given is in vivo, human. As to conditions: corresponding to dose-normalized AUC of 30 ng·h/(mL·mg). On the procedure: First, the developed PBPK model was verified against clinical observations in healthy subjects administered single doses of 300 mg fedratinib alone without further modifications. Second, the developed PBPK model was verified against clinical data under repeated dosing scenarios. As no repeated-dosing studies have been conducted in healthy volunteers, the model verification was conducted using the clinical PK profiles from myelofibrosis (MF) patients administered repeated doses of 300, 400, or 500 mg fedratinib once a day (QD). Third, the PBPK model of fedratinib was verified against the clinical data observed in healthy volunteers co-dosed with fedratinib (300 mg, single dose) and ketoconazole (200 mg BID).
AUC refers to AUCinf for the single dose scenarios and AUCτ for the repeated QD dose scenarios. The number of subjects (n) = 6 in TDU12620, n = 17 in INT12894, n = 10-11 in ARD11936, and n = 100 in virtual trial simulations, respectively. All model simulations listed in the table were simulated using the default “Healthy Volunteers” and “Cancer” population files provided in Simcyp® (V17R1). The prediction error is calculated using PE = (GMprediction – GMobservation)/GMobservation ×100%, where GM refers to geometric mean. SD refers to standard deviation.

Data set [4] has as its target T2, OCT2 (Homo sapiens, UniProt O15244).
T2 sequence (O15244 1-555): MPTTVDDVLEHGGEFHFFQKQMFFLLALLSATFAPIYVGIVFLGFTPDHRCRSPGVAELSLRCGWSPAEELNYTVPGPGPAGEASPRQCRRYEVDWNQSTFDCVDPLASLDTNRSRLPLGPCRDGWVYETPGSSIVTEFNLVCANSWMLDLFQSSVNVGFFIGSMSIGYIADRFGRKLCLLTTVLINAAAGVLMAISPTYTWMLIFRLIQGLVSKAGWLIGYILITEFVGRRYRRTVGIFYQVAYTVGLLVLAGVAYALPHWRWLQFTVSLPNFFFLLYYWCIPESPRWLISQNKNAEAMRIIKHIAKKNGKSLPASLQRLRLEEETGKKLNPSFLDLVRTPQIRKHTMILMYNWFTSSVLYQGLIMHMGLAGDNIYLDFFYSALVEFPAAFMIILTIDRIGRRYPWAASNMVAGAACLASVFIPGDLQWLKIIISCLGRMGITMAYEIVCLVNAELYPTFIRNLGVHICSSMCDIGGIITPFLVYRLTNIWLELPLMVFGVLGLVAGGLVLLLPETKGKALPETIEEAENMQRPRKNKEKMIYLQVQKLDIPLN
Nature of the data set: OCT2 inhibition, CHO-hOCT2 cells (TRI0013). In kind it is in vitro ADME. Further details: expressed in transfected cells; host or cells: CHO^Fi-hOCT2.
Text: as §1, §2

Data set [5] concerns Caco-2/TC7. Nature of the data set: Caco-2/TC7 permeability (Study AIV0208). In kind it is in vitro ADME, human. The note with it: Apical pH:Basolateral pH 7.4:7.4; Simcyp input. The text has this:
(§3) By default, the QGut is set to be the mean value (i.e., 6.5 L/h) in the PBPK model of fedratinib.
(In general: Caco-2 cells form a polarised layer with tight junctions and transporters.)

Data set [6] in a line: Caco-2/TC7 permeability (Study AIV0208). The class given is in vitro ADME, human. As to conditions: human, Caco-2.
Text: as §3

The conditions of data set [7]: healthy subjects, cited from earlier work; for AUC (AUCinf) / Cmax: observation, ref Study TDU12620/INT12894.

The Ki is a measure of affinity in units of concentration, obtained from inhibition or displacement. Low readings indicate higher affinity, high ones lower affinity. By IC50 is commonly meant the point on the concentration scale where inhibition reaches its midpoint. A lower IC50 goes with greater potency in that assay. As usually defined, the fraction unbound is the share of the substance not bound to proteins or other matrix. What is called CL/F is the apparent clearance, not corrected for the fraction that reaches the circulation. In general, Papp refers to the rate of passage across a membrane or cell layer, normalised by area and donor concentration. Lower therefore signals slow passage. For the molecule `Cc1cnc(Nc2ccc(OCCN3CCCC3)cc2)nc1Nc1cccc(S(=O)(=O)NC(C)(C)C)c1` [Fedratinib], the Ki in data set [1] (from IC50 by Cheng-Prusoff, probe estradiol-17β-glucuronide) was found to be 14.6 µM; in data set [4] (from IC50 by Cheng-Prusoff, probe metformin) it was 0.71 µM. In addition, the IC50 was found to be 16.4 µM in data set [1] (probe estradiol-17β-glucuronide 1 μM) and 0.78 µM in data set [4] (probe metformin 25 μM). Besides, in data set [2], the fraction unbound came to 0.05. In addition, in data set [3], the CL/F is listed as 33.3 L/h. Moreover, in data set [5], the PCaco-2 is recorded as 17.800 10E-06 cm/s. The same molecule yielded a Papp at 40 μM in data set [6] (Apical pH:Basolateral pH 6.5:7.4, 40 μM fedratinib) of 0.21 ×10⁻⁶ cm/s. Further, in data set [6] (Apical pH:Basolateral pH 7.4:7.4, 100 μM fedratinib), the Papp at 100 μM was found to be 17.8 ×10⁻⁶ cm/s. Besides, the “AUC (AUCinf)” value in data set [7] (300 mg single dose, GM) was 6530 ng·h/mL; in data set [7] (300 mg single dose, Mean (SD)), 6730 (1990) ng/mL·h; in data set [7] (500 mg single dose, GM), 13200 ng·h/mL; in data set [7] (500 mg single dose, Mean (SD)), 13900 (5240) ng/mL·h. Also, the Cmax is reported as 497 ng/mL in data set [7] (300 mg single dose, GM); 521 (189) ng/mL in data set [7] (300 mg single dose, Mean (SD)); 683 ng/mL in data set [7] (500 mg single dose, GM); 720 (243) ng/mL in data set [7] (500 mg single dose, Mean (SD)). Moreover, the “dose-normalized AUC” value in data set [7] (single doses above 100 mg, ref [3]) is 30 ng·h/mL/mg.
